This data set addresses ATP-dependent translocase ABCB1 (Homo sapiens, UniProt P08183). Briefly: TP_TRANSPORTER: Northern blot from LS174T cell. It is filed as functional, cell-based.
Chain of ATP-dependent translocase ABCB1 (P08183 whole entry): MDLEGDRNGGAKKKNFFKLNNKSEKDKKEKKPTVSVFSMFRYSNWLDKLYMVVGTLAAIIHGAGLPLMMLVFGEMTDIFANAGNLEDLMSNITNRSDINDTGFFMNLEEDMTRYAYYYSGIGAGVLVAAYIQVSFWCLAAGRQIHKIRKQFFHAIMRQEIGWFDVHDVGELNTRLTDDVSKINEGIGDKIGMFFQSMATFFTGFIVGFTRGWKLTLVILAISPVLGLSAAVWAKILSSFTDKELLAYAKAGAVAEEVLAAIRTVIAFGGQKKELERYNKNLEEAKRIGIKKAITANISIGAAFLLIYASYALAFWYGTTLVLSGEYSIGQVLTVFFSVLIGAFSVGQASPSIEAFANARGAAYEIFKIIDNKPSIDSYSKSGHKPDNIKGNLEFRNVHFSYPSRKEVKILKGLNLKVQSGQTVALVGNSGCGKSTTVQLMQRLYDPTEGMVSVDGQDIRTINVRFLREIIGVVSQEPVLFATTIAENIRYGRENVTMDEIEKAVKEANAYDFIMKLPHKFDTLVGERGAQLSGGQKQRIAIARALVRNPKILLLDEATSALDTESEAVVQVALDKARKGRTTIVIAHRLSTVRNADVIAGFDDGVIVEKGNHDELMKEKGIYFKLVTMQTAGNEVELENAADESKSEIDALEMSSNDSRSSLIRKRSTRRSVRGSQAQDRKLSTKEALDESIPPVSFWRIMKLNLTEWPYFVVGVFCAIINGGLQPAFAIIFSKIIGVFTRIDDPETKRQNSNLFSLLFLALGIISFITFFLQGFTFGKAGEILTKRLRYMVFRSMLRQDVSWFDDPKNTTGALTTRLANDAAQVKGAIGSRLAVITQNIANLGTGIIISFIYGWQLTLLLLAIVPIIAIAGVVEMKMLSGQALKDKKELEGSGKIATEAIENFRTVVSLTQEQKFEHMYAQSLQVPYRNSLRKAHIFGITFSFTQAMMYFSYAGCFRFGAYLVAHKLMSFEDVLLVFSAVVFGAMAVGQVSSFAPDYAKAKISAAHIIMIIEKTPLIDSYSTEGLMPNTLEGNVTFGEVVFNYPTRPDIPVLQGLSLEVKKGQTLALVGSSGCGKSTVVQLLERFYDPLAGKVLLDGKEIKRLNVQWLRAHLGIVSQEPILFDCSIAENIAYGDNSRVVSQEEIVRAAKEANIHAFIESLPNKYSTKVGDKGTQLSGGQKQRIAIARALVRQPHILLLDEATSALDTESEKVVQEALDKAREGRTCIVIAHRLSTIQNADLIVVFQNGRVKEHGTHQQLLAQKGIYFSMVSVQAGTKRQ
`CC(=O)[C@H]1CC[C@H]2[C@@H]3CC[C@@H]4CC(=O)CC[C@]4(C)[C@H]3CC[C@]12C`: the Activity result was “inducer [+]”.

As for `NC(=O)N1c2ccccc2C=Cc2ccccc21` [CARBAMAZEPINE], the Activity entry was “inducer [+]”.

Regarding `Clc1ccccc1C(c1ccccc1)(c1ccccc1)n1ccnc1` [CLOTRIMAZOLE], the Activity result is “inducer [+]”.

With `C[C@]12C[C@H](O)[C@H]3[C@@H](CCC4=CC(=O)CC[C@@]43C)[C@@H]1CC[C@@H]2C(=O)CO` [CORTICOSTERONE], the Activity entry was “inducer [+]”.

On to `C[C@@H]1C[C@H]2[C@@H]3CCC4=CC(=O)C=C[C@]4(C)[C@@]3(F)[C@@H](O)C[C@]2(C)[C@@]1(O)C(=O)CO` [DEXAMETHASONE], for which the Activity entry is “inducer [+]”.

Regarding `CC#C[C@]1(O)CC[C@H]2[C@@H]3CCC4=CC(=O)CCC4=C3[C@@H](c3ccc(N(C)C)cc3)C[C@@]21C` [MIFEPRISTONE], the Activity result was “inducer [+]”.

Take `COC(=O)C1=C(C)NC(C)=C(C(=O)OC)C1c1ccccc1[N+](=O)[O-]` [NIFEDIPINE]: the Activity entry is “inducer [+]”.

Consider `CC(=O)[C@H]1[C@H](C#N)C[C@H]2[C@@H]3CC=C4C[C@@H](O)CC[C@]4(C)[C@H]3CC[C@@]21C` [PREGNENOLONE CARBONITRILE], for which the Activity result was “inducer [+]”.

Turning to `COC(=O)[C@H]1[C@H]2C[C@@H]3c4[nH]c5cc(OC)ccc5c4CCN3C[C@H]2C[C@@H](OC(=O)c2cc(OC)c(OC)c(OC)c2)[C@@H]1OC` [RESERPINE], the Activity entry was “inducer [+]”.

As for `CO[C@H]1/C=C/O[C@@]2(C)Oc3c(C)c(O)c4c(O)c(c(/C=N/N5CCN(C)CC5)c(O)c4c3C2=O)NC(=O)/C(C)=C\C=C\[C@H](C)[C@H](O)[C@@H](C)[C@@H](O)[C@@H](C)[C@H](OC(C)=O)[C@@H]1C` [RIFAMPIN], the Activity result is “inducer [+]”.

Values taken from ChEMBL document CHEMBL2074021, “Nuclear receptor response elements mediate induction of intestinal MDR1 by rifampin” (J Biol Chem, 2001).
